Key:
[1] = target: T1, porcine pancreatic lipase (Sus scrofa, UniProt P00591); assay: Pancreatic lipase activity assay (p-nitrophenylbutyrate hydrolysis); format: biochemical; settings: for IC50: mean ± SD of three replicates, regression analysis, read-out: Pancreatic lipase inhibitory activity IC50
T1 construct: purchased Sigma, St. Louis, MO, USA
T1 sequence (P00591 1-450): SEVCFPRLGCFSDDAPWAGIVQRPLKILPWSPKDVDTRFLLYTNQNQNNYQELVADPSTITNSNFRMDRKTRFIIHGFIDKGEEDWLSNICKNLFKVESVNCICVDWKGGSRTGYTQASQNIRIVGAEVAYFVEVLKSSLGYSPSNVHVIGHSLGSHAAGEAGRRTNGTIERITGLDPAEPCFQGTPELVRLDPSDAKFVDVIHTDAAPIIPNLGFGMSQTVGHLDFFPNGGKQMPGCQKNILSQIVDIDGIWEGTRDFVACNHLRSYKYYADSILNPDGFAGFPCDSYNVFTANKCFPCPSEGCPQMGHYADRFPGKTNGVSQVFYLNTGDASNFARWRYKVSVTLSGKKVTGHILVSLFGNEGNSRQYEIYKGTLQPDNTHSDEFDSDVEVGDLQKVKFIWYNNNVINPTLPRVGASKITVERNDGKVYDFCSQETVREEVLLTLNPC
Procedure: A previously reported method, with a minor modification, was used for evaluation of the ability of the compounds to inhibit porcine pancreatic lipase. Briefly, an enzyme buffer was prepared by addition of 30 μL (10 units) of a solution of porcine pancreatic lipase (Sigma, St. Louis, MO, USA) in 10 mM morpholinepropanesulphonic acid (MOPS) and 1 mM EDTA (pH 6.8) to 850 μL of Tris buffer (100 mM Tris-HC1 and 5 mM CaCl2, pH 7.0). […] Inhibition of lipase activity was expressed as the percentage decrease in the optical density (OD) when porcine pancreatic lipase was incubated with the test compounds.

[2] = system: 3T3-L1 cells; assay: Assay of adipocyte differentiation in 3T3-L1 cells (Oil Red O staining); format: cell-based; settings: Mus musculus, 3T3-L1, 50 μM, treated throughout the differentiation period; read-out: Inhibition of lipid deposition (lipid accumulation)
Procedure: Of particular interest, a certain degree of galloylation on the glucose moiety of these active molecules appears to be required for potent inhibitory activity. […] The non-toxic concentrations of the tested compounds were established in 3T3-L1 preadipocytes using concentrations of 50, 25, and 10 μM. After two days of incubation, an MTT assay was performed for measurement of cell viability; according to the results, no cytotoxic effect was detectable for any of the tested compounds in concentrations up to 50 μM. […] 3T3-L1 mouse embryo fibroblasts were cultured in DMEM supplemented with 10% FBS until reaching confluence. Two days after reaching confluence (day 0), to initiated differentiation, cells were stimulated with differentiation medium containing DMEM with 10% FBS, 0.5 mM 3-isobutyl-1-methylxanthine, 1 μM insulin and 1 μM dexamethasone for two days (day 2). […] All media contained 100 IU/mL penicillin and 100 μg/mL streptomycin. Cells were maintained at 37 °C in a humidified atmosphere of 95% air-5% CO2. Throughout the culture period (days 0–8), the cultures were treated with test samples for general experiments, with a slight modification. […] For quantitative analysis, Oil Red O staining was dissolved with isopropyl alcohol and optical density was measured at 500 nm using an ELISA plate reader.

| IC50 [1] [µM] | Compound | Pancreatic lipase inhibition, result in words [1] | inhibition at 50 µM [2] [%] |
| --- | --- | --- | --- |
| > 300 | COC(=O)c1cc(O)c(O)c(O)c1 [Compound 6, methylgallate] | inactive | – |
| 30.6 ± 2.4 | C[C@H]1O[C@H](C)[C@@H](O)C2=C1C(=O)c1c(O)cc(O)c(-c3c4c(c(O)c5c(O[C@@H]6O[C@H](CO)[C@@H](O)[C@H](O)[C@H]6O)cc(O)cc35)[C@@H](C)O[C@H](C)[C@H]4O)c1C2=O [Compound 1, protoaphin-fb] | – | – |
| 23.2 ± 1.8 | O=C(OC[C@H]1O[C@@H](OC(=O)c2cc(O)c(O)c(O)c2)[C@H](OC(=O)c2cc(O)c(O)c(O)c2)[C@@H](O)[C@@H]1OC(=O)c1cc(O)c(O)c(O)c1)c1cc(O)c(O)c(O)c1 [Compound 4, 1,2,4,6-tetra-O-galloyl-β-D-glucose] | – | – |
| 15.9 ± 1 | O=C(OC[C@H]1O[C@@H](OC(=O)c2cc(O)c(O)c(O)c2)[C@H](OC(=O)c2cc(O)c(O)c(O)c2)[C@@H](OC(=O)c2cc(O)c(O)c(O)c2)[C@@H]1OC(=O)c1cc(O)c(O)c(O)c1)c1cc(O)c(O)c(O)c1 [Compound 3, 1,2,3,4,6-penta-O-galloyl-β-D-glucose] | – | – |
| 3.5 ± 0.5 | O=C(OC[C@H]1O[C@@H](OC(=O)c2cc(O)c(O)c(O)c2)[C@H](OC(=O)c2cc(O)c(O)c(OC(=O)c3cc(O)c(O)c(O)c3)c2)[C@@H](OC(=O)c2cc(O)c(O)c(O)c2)[C@@H]1OC(=O)c1cc(O)c(O)c(O)c1)c1cc(O)c(O)c(O)c1 [Compound 2, 2-O-digalloyl-1,3,4,6-tetra-O-galloyl-β-D-glucose] | – | 64 |

| Compound | IC50 [1] [µM] | Pancreatic lipase inhibition, result in words [1] | inhibition at 50 µM [2] [%] |
| --- | --- | --- | --- |
| O=C(O)c1cc(O)c(O)c(O)c1 [Compound 7, gallic acid] | > 300 | inactive | – |

Source: article PMC6269876, “Pancreatic Lipase Inhibitory Gallotannins from Galla Rhois with Inhibitory Effects on Adipocyte Differentiation in 3T3-L1 Cells” (Molecules, 2013)
